Our source for the IC50 values is BindingDB's records for doi:10.1016/0960-894X(96)00323-X (1996).

The test can be described thus: Inhibition of Phosphodiesterase 5 from human corpus cavernosum.
Regarding `CCCc1nn(C)c2c(=O)[nH]c(-c3cc(S(=O)(=O)N4CCN(C(N)=O)CC4)ccc3OCC)nc12` [4-[4-Ethoxy-3-(1-methyl-7-oxo-3-propyl-6,7-dihydro-1H-pyrazolo[4,3-d]pyrimidin-5-yl)-benzenesulfonyl]-piperazine-1-carboxylic acid amide], inhibition was half-maximal at 2.1 nM (IC50).

For the molecule `CCCc1[nH]nc2c(=O)[nH]c(-c3ccccc3O)nc12` [5-(2-Hydroxy-phenyl)-3-propyl-1,6-dihydro-pyrazolo[4,3-d]pyrimidin-7-one], the IC50 (usually the point on the concentration scale where inhibition reaches its midpoint) is 1000 nM. Against the preceding molecule, the IC50 is about 480-fold higher.

For `CCCc1[nH]nc2c(=O)[nH]c(-c3ccccc3)nc12` [5-Phenyl-3-propyl-1,6-dihydro-pyrazolo[4,3-d]pyrimidin-7-one], half-maximal inhibition (IC50) was put at 4500 nM. Compared with the last molecule, the IC50 is about 4.5-fold higher.

The molecule `CCCc1nn(C)c2c(=O)[nH]c(-c3cc(S(=O)(=O)N4CCN(CCO)CC4)ccc3OCC)nc12` [5-{2-Ethoxy-5-[4-(2-hydroxy-ethyl)-piperazine-1-sulfonyl]-phenyl}-1-methyl-3-propyl-1,6-dihydro-pyrazolo[4,3-d]pyrimidin-7-one] displayed an IC50 of 19 nM. Against the preceding molecule, the IC50 is about 240-fold lower.
